Paper PMC4000049, “Genome segment 5 of Antheraea mylitta cytoplasmic polyhedrosis virus encodes a bona fide guanylyltransferase” (Virology Journal, 2014)

System: T1, p65 (AmCPV S5-encoded guanylyltransferase)
T1 construct: entire S5 ORF (nt 266 to 2086; 606 residues, ~65 kDa), His-tagged in pQE-30, E. coli M15, Ni-NTA
Experiment: pyrophosphatase-coupled malachite green assay of capping, replot of double-reciprocal plots
Type: biochemical, Antheraea mylitta cypovirus 4
Conditions: co-substrate 5'-diphosphate-ended viral RNA (50 to 150 nM), 5 mM MgCl2, 5 mM DTT, 50 mM Tris-HCl pH 7.5, 25°C; ping-pong; covalent GMP intermediate

Nc1nc2c(ncn2[C@@H]2O[C@H](COP(=O)(O)OP(=O)(O)OP(=O)(O)O)[C@@H](O)[C@H]2O)c(=O)[nH]1 [GTP]
Km: 34.2 µM
